Key:
[1] = assay type: in vivo, human; conditions: human, in vivo
Excerpt: (§1) An interim analysis has been performed based on the data of 9 subjects of the Impaired Elderly group and 4 subjects of the Healthy Elderly group. For this purpose, cognitive battery test scores (VLT, SMT, Stroop task and BL-VAS) and concentrations of roflumilast and roflumilast-N-oxide in plasma have been analysed and summarized by dose over each scheduled sampling time using descriptive statistics.

[2] = system: 60 to 80 years old subjects (Impaired Elderly and Healthy Elderly); experiment: Verbal Learning Task (VLT) in 60 to 80 years old subjects, interim analysis; assay type: in vivo, human
Protocol: The study is conducted according to a double-blind, placebo-controlled, four-period cross-over design. Forty healthy subjects, both male and female within an age range of 60 to 80 years are planned to be included in the study in two groups: 1) 20 subjects with a memory performance between 1-2 Standard Deviation below the average for their age, gender, and educated level (Impaired Elderly) and 2) 20 subjects with age (±3 years), gender, and educational level matched (in order to speed up the study matching was stopped after the interim analysis) with an average memory performance between 0.5 Standard Deviation below and 0.5 Standard Deviation above from normative values (Healthy Elderly). Classification in terms of impaired or healthy elderly will be determined by a one-off testing of memory performance using the Rey Verbal Learning Task (Rey A; L'examen psychologique dans les cas d'encephalopathy traumatique 1958 Paris; Presses Universitaire de France; or Van der Elst et al; J Int Neuropsychol Soc 2005, 11 (3), pp 290-302) according to fully standardized procedures as applied in The Maastricht Aging Study (Jolles et al; Maastricht Aging Study; determinants of cognitive aging; Maastricht, The Netherlands, Neuropsych Publishers 1995). Normative data for each individual subject will be derived also from the Maastricht Aging Study using the regression formula as described by Van der Elst et al (Van der Elst et al; J Int Neuropsychol Soc 2005, 11 (3), pp 290-302).
All subjects within their corresponding groups (either Healthy Elderly n=20 or Impaired Elderly n=20) will be randomized in a double blind fashion to 1 of 4 treatment sequences, each sequence consisting of the following periods: A) Placebo+placebo; B) Roflumilast 100 mcg+placebo; C) Roflumilast […]+placebo and D) Roflumilast 1000 mcg (500+500 mcg) according to a computer-generated allocation schedule in a cross-over design. Between each of the four treatment sequences there will be a 12 days washout period.
Verbal learning task (VLT) The Rey VLT as modified by Riedel and colleagues (Riedel, Klaasen et al, Psychopharmacology (Berlin) 1999 Vol 141(4) pp 362-369) is used. This modified VLT maximizes the possibility of measuring enhancement rather than only impairment, by means of prolonging the list. The test consists of a list of 30 monosyllabic words (18 nouns and 12 adjectives). The words are shown on a computer screen for 1 second. Three trials with the same item sequence are presented. Each trial ends with a free recall of the words (immediate recall). Forty-five minutes after the first exposure, the subject is asked to recall as many words as possible (delayed recall). […] The words are shown on a computer screen for 2 seconds and subjects are asked to rate whether they were presented in the learning trial by a “yes/no” response. The inter-word interval is 2 seconds. 24 Hours after the immediate recall, subjects will return to the lab for a second delayed recall and recognition. […] EEG will be recorded during the immediate recall and the first recognition test on the test day. […]
as §1, with “statistics. […]” for “statistics.”

[3] = system: xylazine/ketamine induced α2-adrenergic receptor-mediated anesthesia; conditions: in vivo, 3 mg/kg
Excerpt: Since emesis is a typical side-effect of PDE4 inhibitors the emetic potential of roflumilast and rolipram was investigated in parallel using the xylazine/ketamine induced α2-adrenergic receptor-mediated anesthesia test. The results confirmed that the two phosphodiesterase 4 inhibitors have different effects on emesis.

O=C(Nc1c(Cl)cncc1Cl)c1ccc(OC(F)F)c(OCC2CC2)c1 [roflumilast, N-(3,5-dichloropyridin-4-yl)-3-cyclopropylmethoxy-4-difluoromethoxybenzamide]
exposure [1]: consistent with those previously reported | increase in number of correct words, 45 min delayed recall, compared to placebo ([2]; 100 mcg): 1.7 words | placebo-corrected fold-improvement ([2]; 100 mcg, 3rd trial, interim data elderly study): 1.16 | increase in number of correct words immediately recalled, compared to placebo ([2]; 100 mcg, after 3rd trial): 1.5 words | number of words on the 3rd trial ([2]; 100 mcg, elderly subjects): 10.28 words | increase in number of correct words, 45 min delayed recall, compared to placebo ([2]; 1000 mcg): 1.6 words | emetic potential [3]: tendency towards emetic potential

Source: patent US20150051246A1 (priority 2013, published 2015)
